# Reference: US9862684B2, “Modulation of K2P channels” (The Regents of the University of California, priority 2013, dated 2018)
# Key:
# [1] = molecular target: T1, K2P18.1 (TRESK) (Mus musculus, UniProt Q6VV64); experiment: Two-electrode voltage clamp, Xenopus oocytes expressing K2P18.1 (TRESK); assay type: cell-based, Murine
# T1 construct: expressed in transfected cells; host or cells: Xenopus oocytes
# T1 sequence (Q6VV64 1-394): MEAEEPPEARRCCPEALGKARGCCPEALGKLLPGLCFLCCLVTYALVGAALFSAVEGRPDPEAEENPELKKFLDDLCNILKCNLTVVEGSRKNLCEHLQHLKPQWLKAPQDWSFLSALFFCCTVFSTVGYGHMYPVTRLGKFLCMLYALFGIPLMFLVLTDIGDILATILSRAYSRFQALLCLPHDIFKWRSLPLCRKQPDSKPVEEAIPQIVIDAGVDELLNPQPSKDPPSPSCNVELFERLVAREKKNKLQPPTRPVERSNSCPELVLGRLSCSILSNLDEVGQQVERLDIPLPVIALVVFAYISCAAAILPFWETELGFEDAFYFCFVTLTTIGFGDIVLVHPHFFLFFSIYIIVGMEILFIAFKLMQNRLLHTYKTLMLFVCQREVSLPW
# Experimental: FIG. 7 ML67-33 is a selective activator of heat- and mechanosensitive K2P channels. a-f, Exemplar I-V curves showing the effect of ML67-33 on a, K2P10.1 (TREK-2), b, K2P4.1 (TRAAK), c, K2P3.1 (TASK-1), d, K2P9.1 (TASK-3), e, K2P5.1 (TASK-2), and f, K2P18.1 (TRESK) measured in Xenopus oocytes in 2 mM [K^+]o pH 7.4. Currents were elicited by a voltage ramp from −150 to 50 mV, from a holding potential of −80 mV. g, Quantification of the effect of ML67-33 on the indicated channels. Data (mean±s.e., n≧6, N≧2) was normalized to basal channel activity and fitted to the Hill equation. […] Error bars indicate s.e., n≧6, N≧2.
# Murine K2P channels were cloned into pGEMHE/pMO {Bagriantsev, 2011}, IRES-GFP (Invitrogen), or pYES2-MET25 (high copy 2μ, URA3) {Minor, 1999} for expression in oocytes, HEK-293T cells, and yeast, respectively, using standard molecular biology procedures, and verified by DNA sequencing.
# Two-electrode voltage clamp recordings were performed from defolliculated stage V-VI Xenopus oocytes 24-48 hours after injection with 0.015-6.0 ng cRNA, using microelectrodes (0.3-3.0 MΩ) filled with 3M KCl. Data was acquired using the GeneClamp 500B (MDS Analytical Technologies) amplifier controlled by the pClamp software (Molecular Devices), and digitized at 1 kHz using Digidata 1332A (MDS Analytical Technologies). […]
# [2] = molecular target: T2, Kv7.2 (KCNQ2) (Homo sapiens, UniProt O43526); experiment: Two-electrode voltage clamp, Xenopus oocytes expressing Kv7.2 (KCNQ2); assay type: cell-based; settings: ML67-33 at 100 μM; ML67 concentration not stated
# T2 construct: expressed in transfected cells; host or cells: Xenopus oocytes
# Experimental: FIG. 12 Exemplar I-V curves showing the effect of 100 μM ML67-33 Kv7.2 (KCNQ2) measured by two-electrode voltage clamp in Xenopus oocytes in 2 mM [K^+]o pH 7.4. Currents were elicited by a step protocol from −120 to 60 mV, in 20 mV increments, from a holding potential of −80 mV.
# Two-electrode voltage clamp recordings were performed from defolliculated stage V-VI Xenopus oocytes 24-48 hours after injection with 0.015-6.0 ng cRNA, using microelectrodes (0.3-3.0 MΩ) filled with 3M KCl. Data was acquired using the GeneClamp 500B (MDS Analytical Technologies) amplifier controlled by the pClamp software (Molecular Devices), and digitized at 1 kHz using Digidata 1332A (MDS Analytical Technologies). Recording solutions (mM): 2K (96 NaCl, 2 KCl, 1.8 CaCl2, 2 MgCl2), 90K (90 KCl, 8 NaCl, 1.8 CaCl2, 2 MgCl2), were buffered 5 mM HEPES pH 7.4. For K2P recordings, currents we elicited by a 1 second long ramp from −150 to +50 mV from a holding potential of −80 mV (2K), or −100 to +50 mV from a holding potential of 0 mV (90K). For KCNQ2 recordings, currents were elicited by a step protocol from −120 to 60 mV, in 20 mV increments, from a holding potential of −80 mV. Patch-clamp recordings from HEK-293T cells were performed using microelectrodes (2-3 MΩ) filled with 1M KCl. Data was acquired using the Axopatch 200B amplifier controlled by pClamp software, and digitized at 1 kHz using Digidata 1332A. Recording solutions (mM): intracellular (145 KCl, 5 EGTA, 3 MgCl2,) extracellular (150 NaCl, 5 KCl, 3 MgCl2, 1 CaCl2) were buffered with 5 mM HEPES pH 7.2 and 7.4, respectively. Currents were elicited by a 1 second long ramp from −150 to +50 mV from a holding potential of −80 mV. Data were fitted with a modified Hill's equation: I=Imin+(Imax−Imin)/(1+10^((Log EC50−Log [C])*H)), where Imax and Imin are maximal and minimal current values, respectively, EC50 is a half-maximal effective concentration of the compound, and H is the Hill coefficient.
# [3] = Solubility (remarks); assay type: physicochemical
smiles,measurement,setting,value
"CC1(C)c2cc(Cl)ccc2N(CCc2nnn[nH]2)c2ccc(Cl)cc21 [ML67-33, 2,7-dichloro-9,9-dimethyl-10-[2-(1H-tetrazol-5-yl)ethyl]acridine]",functional effect (in words),[1]; applied at 100 μM,little or no functional effects
same,Emax (fold),"[1]; at 100 μM (FIG. 7 legend), ** in Table 1",0.9±0.1 fold
same,effect on Kv7.2 (KCNQ2) (in words),[2],no effect
same,solubility (in words),[3],favorable solubility properties
